What all share (type): in vivo, mice
One assay deals with B16F10 melanoma tumors. Kind of assay: Treatment of B16F10 melanoma tumors. As to conditions: single injection of high-dose cGAMP-S (40 μg) and EP. As for the experimental part:
2×10^5 4 T1 or 2×10^5 B16F10 cells were subcutaneously injected to the right rear flank of BALB/c mice or C57BL/6 female mice respectively. For orthotopic 4T1 model, 2×10^5 4 T1 cells were injected into the mammary fat pad. Seven days after tumor injection, B16F10 tumor-bearing mice were divided into 6 experimental groups (n=8 for each group): untreated, 1×empty microdevices(EP), 1×cGAMP-S plus EPs, 1×collagen gel, 4×cGAMP-S, and 1×cGAMP-S plus cGAMP-MPs, respectively (FIG. 3D). For the 4×cGAMP-S group, mice were intratumorally administered with 10 μg of cGAMP in 50 μL MC solution (cGAMP-S) at days 0, 4, 8, and 11 to replicate the four doses of soluble cGAMP. The overall does of cGAMP were 40 μg per mouse throughout the treatment period. […] Tumor size was measured every other day starting at day 7 post tumor inoculation with a digital caliper. Tumor volume was calculated using the following formula: length (mm)×width^2 (mm)×0.5. […]
Mice bearing B16F10 tumors were treated with the following 4 experimental groups (n=8): untreated, 1×EPs, 3×cGAMP-S, and 1×cGAMP-S plus cGAMP-MPs, respectively (FIG. 4A). […] The protein content in the supernatant was quantified using a bicinchoninic acid protein assay kit (Thermo Fisher Scientific, MA, USA). […]

Assay [1] concerns phosphorylated-IRF3 (p-IRF3). The experiment in a line: Western blot of B16F10 tumors. As to conditions: tumors at day 16; cGAMP-MPs single injection, cGAMP-S three injections. Here is the method:
(§1) Mice bearing B16F10 tumors were treated with the following 4 experimental groups (n=8): untreated, 1×EPs, 3×cGAMP-S, and 1×cGAMP-S plus cGAMP-MPs, respectively (FIG. 4A). Tumors were collected at day 16 post tumor inoculation and cut into 50-100 mg small pieces in a 1.5 mL microcentrifuge tube. The tumors were lysed in radioimmunoprecipitation assay (RIPA) buffer (Sigma-Aldrich), homogenized, and centrifuged at 20130 rcf for 10 min. The protein content in the supernatant was quantified using a bicinchoninic acid protein assay kit (Thermo Fisher Scientific, MA, USA). Equal amounts of proteins (20 μg) were separated on a 4 to 15% gradient SDS-polyacrylamide gel (Bio-Rad, Hercules, CA) and electro-transferred to nitrocellulose membrane. The membranes were then blocked with 5% milk in tris-buffered saline supplemented with 0.05% Tween 20 and further incubated with GAPDH monoclonal antibody (Invitrogen, CA, cat. no. MA5-27912), phospho-TBK1/NAK (Ser172) (D52C2) Rabbit mAb (Cell Signaling Technology, cat. no. 5483S), or phospho-IRF-3 (S396) Rabbit mAb (Cell Signaling Technology, cat. no. 4947S) at 4° C. overnight. The membranes were then incubated with goat anti-rabbit IgG (H+L) Secondary Antibody, HRP (Invitrogen, cat. no. TG266717) for 1 h at room temperature. Protein bands were visualized by chemiluminescence using the ECL Western Blotting Substrate (Thermo Fisher Scientific, MA).
For orientation: Immunoblotting shows a protein as a band on a membrane.

Assay [2] deals with phosphorylated-TBK1 (p-TBK1). Kind of assay: Western blot of B16F10 tumors. As to conditions: tumors at day 16; cGAMP-MPs single injection, cGAMP-S three injections. As for the experimental part: as §1
Assay [3] concerns immune cells in TME of B16F10 melanoma tumors. Kind of assay: Flow cytometry of immune cells in B16F10 TME. As for the experimental part:
as §1
To stain the intracellular marker, e.g., IFN-γ, cells were pre-stimulated with cell stimulation cocktail (eBioscience, cat. no. 00-4970-93) for 4-6 h, fixed and permeabilized using fixation/permeabilization solution kit (BD, cat. no. 554714), and then stained with both anti-IFN-γ and other surface antibodies. Antibodies used for flow cytometry studies were anti-CD86-BUV395 (BD, cat. no. 564199), anti-CD45-BUV737 (BD, cat. no. 564880), anti-TCRβ-BV421 (Biolegend, cat. no. 109229), anti-NK1.1-BV605 (Biolegend, cat. no. 108739), anti-NK1.1-BV605 (Biolegend, cat. no. 108739), anti-CD8a-FITC (BD, cat. no. 553030), anti-CD4-PerCP/Cy5.5 (BD, cat. no. 550954), anti-CD62L-PE (Biolegend, cat. no. 104407), anti-CD19-PE/Cy7 (eBioscience, cat. no. 25-0193-81), anti-CD3-PE/594 (Biolegend, cat. no. 100245), anti-FOXP3-APC (eBioscience, cat. no. 17-5773-80), anti-CD11b-AF700 (Biolegend, cat. no. 201222), anti-CD8a-BV421 (Biolegend, cat. no. 100737), anti-Ly6g-BV510 (Biolegend, cat. no. 127633), anti-Siglec F-BV605 (BD, cat. no. 740388), anti-MHC II-BV786 (BD, cat. no. 743875), anti-Ly6c-AF488 (Biolegend, cat. no. 128021), anti-CD11c-PerCP/Cy5.5 (Biolegend, cat. no. 117327), anti-CD206-PE (Biolegend, cat. no. 141705), anti-CD197-PE/594 (Biolegend, cat. no. 120121), anti-F4/80-PE/Cy7 (Biolegend, cat. no. 123113), anti-CD200R3-APC (Biolegend, cat. no. 142207), anti-CD11b-AF700 (Biolegend, cat. no. 101222), and viability dye eFluor 780 (eBiosciecne, cat. no. 65-0865-14). Flow cytometry data were acquired on an LSRFortessa cell analyzer (BD) and analyzed using FlowJo software.
Background: A flow cytometer gives signals particle by particle.

Setting [4] is: day 16, cGAMP-MPs single injection, cGAMP-S three injections.

Consider one compound from US12390537B2, “Compositions of polymeric microdevices and methods of use thereof in cancer immunotherapy” (Massachusetts Institute of Technology, priority 2020, dated 2025).

For `Nc1nc2c(ncn2[C@@H]2O[C@@H]3COP(=O)(O)O[C@H]4[C@@H](O)[C@H](n5cnc6c(N)ncnc65)O[C@@H]4COP(=O)(O)O[C@H]3[C@H]2O)c(=O)[nH]1` [cGAMP-S, 3′3′-cGAMP], the tumor growth entry in the assay on B16F10 melanoma tumors is reported as “exhibited an antitumor effect at early time points but failed to achieve sustained tumor inhibition”. For the same compound, the survival time in the assay with B16F10 melanoma tumors (untreated 21 days) worked out at 25 days. The “expression of p-IRF3” value in assay [1] was “high expression levels”. In addition, the “expression of p-TBK1” value in assay [2] is listed as “high expression levels”. Also, the “polarization of macrophages within the TME” value in assay [3] (3 doses of soluble cGAMP or 1 dose of cGAMP-MPs) is listed as “repolarization of M2-like macrophages in the tumor to M1-like phenotype”. Besides, in assay [3] (setting [4]), the “increase of CD8+/CD4+ T cell ratio” value is on record as 1.2 fold, the “increase of TILs compared to untreated” value was “approximately 23.5 fold”, the “increase of surface expression of CD86 on tumor infiltrating DCs” value is reported as 1.7 fold and the “increase of tumor-infiltrating CD4+ T cells” value came to 23.6 fold. In addition, in assay [3] (setting [4]), the “increase of tumor-infiltrating CD8+ T cells” value turned out to be 24.4 fold; the “infiltrating natural killer (NK) cells” value is listed as “increased”; the “influx of DCs, basophils, monocytes and macrophages” value is reported as “promoted the influx”.
